From patent US8399681B2, “Substituted aminothiazolone indazoles as estrogen related receptor-alpha modulators” (Janssen Pharmaceutica NV, priority 2009, dated 2013)
pEC50: −log10 of the molar value.

molecular target: T1, ERR1 (also known as ERR-α or ERR-1) (Homo sapiens, UniProt P11474); test: TR-FRET assay (disruption of co-activator peptide binding); assay type: biochemical; conditions: 6His-tagged ERR1 LBD, GST-hSRC2 co-activator polypeptide; average of 3 independent experiments
T1 sequence (P11474 193-421 limits assumed): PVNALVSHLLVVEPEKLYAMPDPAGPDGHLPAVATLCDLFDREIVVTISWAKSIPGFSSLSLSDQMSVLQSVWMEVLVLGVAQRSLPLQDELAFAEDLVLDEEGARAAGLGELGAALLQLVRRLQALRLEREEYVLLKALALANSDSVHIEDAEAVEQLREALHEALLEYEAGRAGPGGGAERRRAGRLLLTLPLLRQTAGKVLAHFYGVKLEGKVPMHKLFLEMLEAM
How it was run: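 Compound-induced loss of co-activator recruitment, read by time-resolved FRET (excitation 340 nm; 615 and 665 nm emission) after 4-18 h at 25 °C. Reagents: 6 nM ERR1LBD, 6 nM GST-SRC-2, 30 nM Eu cryptate, 7.5 nM XL665, pH 8 Tris buffer. Values: hyperbolic fits averaged over 3 independent runs.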

Row | pEC50 | Structure (SMILES)
1 | 7.96 | O=C1N=C(N2CCC[C@@H]2C(=O)O)S/C1=C\c1ccc2c(cnn2Cc2ccc(C(F)(F)F)cc2C(F)(F)F)c1 [Example 43, 1-{5-[1-(2,4-Bis-trifluoromethyl-benzyl)-1H-indazol-5-ylmethylene]-4-oxo-4,5-dihydro-thiazol-2-yl}-pyrrolidine-2-(R)-carboxylic acid]
2 | 7.59 | O=C1N=C(N2CCNCC(O)C2)S/C1=C\c1ccc2c(cnn2Cc2ccc(C(F)(F)F)cc2C(F)(F)F)c1 (stereo not drawn) [Example 151, 5-[1-(2,4-Bis-trifluoromethyl-benzyl)-1H-indazol-5-ylmethylene]-2-(6-hydroxy-[1,4]diazepan-1-yl)thiazol-4-one]
3 | 7.82 | CNC(=O)[C@H]1CN(C2=NC(=O)/C(=C/c3ccc4c(cnn4Cc4ccc(C(F)(F)F)cc4C(F)(F)F)c3)S2)CCN1 [Example 227, (2R)-4-[5-({1-[2,4-Bis(trifluoromethyl)benzyl]-1H-indazol-5-yl}methylidene)-4-oxo-4,5-dihydro-1,3-thiazol-2-yl]-N-methylpiperazine-2-carboxamide]
4 | 6.54 | O=C1N=C(N2C[C@H](NC(=O)C3CC3)C[C@@H]2CO)S/C1=C\c1ccc2c(cnn2Cc2ccc(C(F)(F)F)cc2C(F)(F)F)c1 [Example 260, N-{(3R,5R)-1-[5-({1-[2,4-Bis(trifluoromethyl)benzyl]-1H-indazol-5-yl}methylidene)-4-oxo-4,5-dihydro-1,3-thiazol-2-yl]-5-(hydroxymethyl)pyrrolidin-3-yl}cyclopropanecarboxamide]
5 | 7.61 | COC[C@H]1CN(C2=NC(=O)/C(=C/c3ccc4c(cnn4Cc4ccc(C(F)(F)F)cc4C(F)(F)F)c3)S2)CCN1 [Example 210, 5-({1-[2,4-Bis(trifluoromethyl)benzyl]-1H-indazol-5-yl}methylidene)-2-[3-(R)-(methoxymethyl)piperazin-1-yl]-1,3-thiazol-4(5H)-one]
6 | 7.74 | C[C@@H]1CN(C2=NC(=O)/C(=C/c3ccc4c(cnn4Cc4ccc(C(F)(F)F)cc4C(F)(F)F)c3)S2)C[C@H](C)N1C [Example 239, 5-({1-[2,4-Bis(trifluoromethyl)benzyl]-1H-indazol-5-yl}methylidene)-2-((3R,5S)-3,4,5-trimethylpiperazin-1-yl)-1,3-thiazol-4(5H)-one]
7 | 8.10 | O=C1N[C@@H]2C[C@H](CO1)N(C1=NC(=O)/C(=C/c3ccc4c(cnn4Cc4ccc(C(F)(F)F)cc4C(F)(F)F)c3)S1)C2 [Example 214, (1R,6R)-7-[5-({1-[2,4-Bis(trifluoromethyl)benzyl]-1H-indazol-5-yl}methylidene)-4-oxo-4,5-dihydro-1,3-thiazol-2-yl]-4-oxa-2,7-diazabicyclo[4.2.1]nonan-3-one]
8 | 8.10 | NC(=O)C1CN(C2=NC(=O)/C(=C/c3ccc4c(cnn4Cc4ccc(C(F)(F)F)cc4C(F)(F)F)c3)S2)CCN1 (stereo not drawn) [Example 274, 4-[5-({1-[2,4-Bis(trifluoromethyl)benzyl]-1H-indazol-5-yl}methylidene)-4-oxo-4,5-dihydro-1,3-thiazol-2-yl]piperazine-2-carboxamide]

More lines, now with the values behind:

Row | Structure (SMILES) | pEC50
9 | COC(=O)CCNC(=O)C1CN(C2=NC(=O)/C(=C/c3ccc4c(cnn4Cc4ccc(Cl)cc4C(F)(F)F)c3)S2)C1 [Example 152, 3-[(1-{5-[1-(4-Chloro-2-trifluoromethyl-benzyl)-1H-indazol-5-ylmethylene]-4-oxo-4,5-dihydro-thiazol-2-yl}-azetidine-3-carbonyl)-amino]-propionic acid methyl ester] | 7.62
10 | COCCN1C[C@@H]2C[C@H]1CN2C1=NC(=O)/C(=C/c2ccc3c(cnn3Cc3ccc(Cl)cc3C(F)(F)F)c2)S1 [Example 85, 5-[1-(4-Chloro-2-trifluoromethyl-benzyl)-1H-indazol-5-ylmethylene]-2-[5-(2-methoxy-ethyl)-2S,5S-diaza-bicyclo[2.2.1]hept-2-yl]-thiazol-4-one] | 8.07
11 | CS(=O)(=O)c1ccc(Cn2ncc3cc(/C=C4\SC(N5CCN(CCO)CC5)=NC4=O)ccc32)c(Cl)c1 [Compound 19, 5-[1-(2-Chloro-4-methanesulfonyl-benzyl)-1H-indazol-5-ylmethylene]-2-[4-(2-hydroxy-ethyl)-piperazin-1-yl]-thiazol-4-one] | 6.46
12 | CC(=O)N[C@@H]1C[C@H](CO)N(C2=NC(=O)/C(=C/c3ccc4c(cnn4Cc4ccc(Cl)cc4C(F)(F)F)c3)S2)C1 [Example 261, N-{(3R,5R)-1-[5-({1-[4-Chloro-2-(trifluoromethyl)benzyl]-1H-indazol-5-yl}methylidene)-4-oxo-4,5-dihydro-1,3-thiazol-2-yl]-5-(hydroxymethyl)pyrrolidin-3-yl}acetamide] | 7.70
13 | O=C(O)CN1CCN(C2=NC(=O)/C(=C/c3ccc4c(cnn4Cc4ccc(C(F)(F)F)cc4C(F)(F)F)c3)S2)CC1 [Example 119] | 7.85
14 | CN1CCN(C2=NC(=O)/C(=C/c3ccc4c(cnn4Cc4ccc(C#N)cc4C(F)(F)F)c3)S2)CC1 [Compound 10, 4-{5-[2-(4-Methyl-piperazin-1-yl)-4-oxo-4H-thiazol-5-ylidenemethyl]-indazol-1-ylmethyl}-3-trifluoromethyl-benzonitrile] | 6.70
15 | O=C1N=C(N2CC(N3CCOCC3)C2)S/C1=C\c1ccc2c(cnn2Cc2ccc(C(F)(F)F)cc2C(F)(F)F)c1 [Example 204, 5-({1-[2,4-Bis(trifluoromethyl)benzyl]-1H-indazol-5-yl}methylidene)-2-(3-morpholin-4-ylazetidin-1-yl)-1,3-thiazol-4(5H)-one] | 7.38
16 | CCN1CCN(C2=NC(=O)/C(=C/c3ccc4c(cnn4Cc4ccc(C(F)(F)F)cc4C(F)(F)F)c3)S2)CC1 [Example 67, 5-[1-(2,4-Bis-trifluoromethyl-benzyl)-1H-indazol-5-ylmethylene]-2-(4-ethyl-piperazin-1-yl)-thiazol-4-one] | 7.68
17 | O=C1N=C(N2C[C@@H]3C[C@H]2CN3CCO)S/C1=C\c1ccc2c(cnn2Cc2ccc(Cl)cc2C(F)(F)F)c1 [Example 80, 5-[1-(4-Chloro-2-trifluoromethyl-benzyl)-1H-indazol-5-ylmethylene]-2-[5-(2-hydroxy-ethyl)-2S,5S-diaza-bicyclo[2.2.1]hept-2-yl]-thiazol-4-one] | 8.24
18 | CN1CCN(C2=NC(=O)/C(=C/c3ccc4c(cnn4Cc4ccc(Cl)cc4C(F)(F)F)c3)S2)[C@@H](CO)C1 [Example 254, 5-({1-[4-Chloro-2-(trifluoromethyl)benzyl]-1H-indazol-5-yl}methylidene)-2-[(2R)-2-(hydroxymethyl)-4-methylpiperazin-1-yl]-1,3-thiazol-4(5H)-one] | 8.19
19 | Cc1nn(Cc2ccc(Cl)cc2C(F)(F)F)c2ccc(/C=C3\SC(N4CCN[C@H](CO)C4)=NC3=O)cc12 [Example 277, 5-({1-[4-Chloro-2-(trifluoromethyl)benzyl]-3-methyl-1H-indazol-5-yl}methylidene)-2-[(3S)-3-(hydroxymethyl)piperazin-1-yl]-1,3-thiazol-4(5H)-one] | 8.05
20 | CC(C)(O)c1ccc(Cn2ncc3cc(/C=C4\SC(N5CCO[C@H](CO)C5)=NC4=O)ccc32)c(C(F)(F)F)c1 [Example 244, 5-({1-[4-(1-Hydroxy-1-methylethyl)-2-(trifluoromethyl)benzyl]-1H-indazol-5-yl}methylidene)-2-[2-(S)-(hydroxymethyl)morpholin-4-yl]-1,3-thiazol-4(5H)-one] | 6.96
21 | O=C1N=C(N2CCN(CC(F)(F)F)CC2)S/C1=C\c1ccc2c(cnn2Cc2ccc(Cl)cc2C(F)(F)F)c1 [Example 58, 5-[1-(4-Chloro-2-trifluoromethyl-benzyl)-1H-indazol-5-ylmethylene]-2-[4-(2,2,2-trifluoro-ethyl)-piperazin-1-yl]-thiazol-4-one] | 7.38
22 | CN1CCN(C2=NC(=O)/C(=C/c3ccc4c(cnn4Cc4ccc(Cl)cc4Br)c3)S2)CC1 [Example 95, 5-[1-(2-bromo-4-chlorobenzyl)-1H-indazol-5-ylmethylene]-2-(4-methyl-piperazin-1-yl)-thiazol-4-one] | 7.96
23 | CC(C)(O)c1ccc(Cn2ncc3cc(/C=C4\SC(N5CCN[C@@H](CO)C5)=NC4=O)ccc32)c(C(F)(F)F)c1 [Example 246, 5-({1-[4-(1-Hydroxy-1-methylethyl)-2-(trifluoromethyl)benzyl]-1H-indazol-5-yl}methylidene)-2-[3-(R)-(hydroxymethyl)piperazin-1-yl]-1,3-thiazol-4(5H)-one] | 6.64
24 | CC(=O)N1CCN(C2=NC(=O)/C(=C/c3ccc4c(cnn4Cc4ccc(F)cc4C(F)(F)F)c3)S2)CC1 [Compound 5, 2-(4-Acetyl-piperazin-1-yl)-5-[1-(4-fluoro-2-trifluoromethyl-benzyl)-1H-indazol-5-ylmethylene]-thiazol-4-one] | 7.38
25 | CCC1(O)CCCN(C2=NC(=O)/C(=C/c3ccc4c(cnn4Cc4ccc(Cl)cc4C(F)(F)F)c3)S2)C1 (stereo not drawn) [Example 165, 5-[1-(4-Chloro-2-trifluoromethyl-benzyl)-1H-indazol-5-ylmethylene]-2-(3-ethyl-3-hydroxy-piperidin-1-yl)-thiazol-4-one] | 7.74
26 | CNC1CCCCN(C2=NC(=O)/C(=C/c3ccc4c(cnn4Cc4ccc(Cl)cc4C(F)(F)F)c3)S2)C1 (stereo not drawn) [Example 161, 5-[1-(4-Chloro-2-trifluoromethyl-benzyl)-1H-indazol-5-ylmethylene]-2-(3-methylamino-azepan-1-yl)-thiazol-4-one] | 7.61
27 | C=C(C)c1ccc(Cn2ncc3cc(/C=C4\SC(N5CCN[C@@H](CO)C5)=NC4=O)ccc32)c(Cl)c1 [Example 230, 5-({1-[2-Chloro-4-(1-methylethenyl)benzyl]-1H-indazol-5-yl}methylidene)-2-[3-(R)-(hydroxymethyl)piperazin-1-yl]-1,3-thiazol-4(5H)-one] | 6.87
